Data on two compounds can be found in article PMC11378298 (ACS Chemical Neuroscience, 2024).

For series [1], the target named is T1, GSK-3β (Homo sapiens, UniProt P49841). In words: biochemical. Here is the method:
(§1) We evaluated the pharmacological properties of the compounds in vitro against GSK-3β using the GSK-3β Kinase Enzyme System followed by ADP-Glo bioluminescent assay.[50] The principle of the assay is to determine the amount of ADP formed from ATP in the kinase reaction. […] Additionally, compounds 11 and 36 in complex with GSK-3β were analyzed by the proteins’ melting temperature determination using Thermal Shift Assay (see Figure S1 in the SI).
The inhibitory activities of the tested compounds against the GSK-3β human recombinant kinase were measured using Promega’s GSK-3β Kinase Enzyme System (Promega; Madison, WI, USA), according to the provided manufacturer’s instruction, using the low-volume white polystyrene 384-well plates. The ADP-Glo Assay (Promega; Madison, WI, USA) was used for bioluminescent detection of the kinase activity. Tested compounds were prepared as 1 mM stock solutions in DMSO and diluted with the Kinase Assay Buffer before use (40 mM Tris, pH 7.5, enriched with 50 μM dithiothreitol; DTT) to obtain the desired compounds’ concentrations. The kinase enzyme, GSK-3β-substrate (derived from human muscle glycogen synthase 1), and ATP were also diluted in the assay buffer before use. At first, GSK-3β (10 ng per well) was incubated with the tested sample (10 μM in well) for 5 min. In the case of blank wells, the DMSO solution (1% in well) was used instead of the target samples’ solutions. After the incubation period, ATP (25 μM in well) and GSK-3β-substrate (0.2 μg/μL in well) were added to start the enzymatic reaction. The reaction mixture was kept at room temperature for 1 h, followed by the addition of the ADP-Glo reagent, to terminate the kinase reaction and deplete any remaining ATP. After the following 40 min—a second reagent (Kinase Detection Reagent) was applied to convert the obtained ADP to ATP and to generate light from the newly synthesized ATP using a luciferase/luciferin reaction. The mixture was kept for another 30 min at room temperature, then the luminescence was measured. Based on equation 100 – (S/B) × 100 (where S and B were the respective enzyme activities with and without the tested sample, respectively) the percent of inhibition of GSK-3β for each compound was calculated. […] Calculations were made using nonlinear regression (GraphPad Prism 9; GraphPad Software, San Diego, CA, USA) by plotting the residual enzyme activities against the applied inhibitor concentration. […] Each data point was collected in triplicate.
Target sequence in this assay (P49841 whole entry): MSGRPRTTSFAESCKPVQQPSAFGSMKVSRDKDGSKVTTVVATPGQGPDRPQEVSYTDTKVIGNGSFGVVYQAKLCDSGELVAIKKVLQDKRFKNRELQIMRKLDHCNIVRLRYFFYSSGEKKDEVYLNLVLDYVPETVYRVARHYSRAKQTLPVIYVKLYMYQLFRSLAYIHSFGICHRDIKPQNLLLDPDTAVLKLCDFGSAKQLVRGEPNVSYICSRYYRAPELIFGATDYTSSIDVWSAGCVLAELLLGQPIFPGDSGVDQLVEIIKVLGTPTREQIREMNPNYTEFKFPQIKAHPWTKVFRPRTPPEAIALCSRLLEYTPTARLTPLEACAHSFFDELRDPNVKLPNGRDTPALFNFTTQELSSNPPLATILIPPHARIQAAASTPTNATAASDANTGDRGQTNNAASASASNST

Series [2] concerns the target T1, GSK-3β. In words: biochemical. To be noted: read-out: increase of the melting point of the protein. Here is the method: as §1
Target sequence in this assay (P49841 26-383): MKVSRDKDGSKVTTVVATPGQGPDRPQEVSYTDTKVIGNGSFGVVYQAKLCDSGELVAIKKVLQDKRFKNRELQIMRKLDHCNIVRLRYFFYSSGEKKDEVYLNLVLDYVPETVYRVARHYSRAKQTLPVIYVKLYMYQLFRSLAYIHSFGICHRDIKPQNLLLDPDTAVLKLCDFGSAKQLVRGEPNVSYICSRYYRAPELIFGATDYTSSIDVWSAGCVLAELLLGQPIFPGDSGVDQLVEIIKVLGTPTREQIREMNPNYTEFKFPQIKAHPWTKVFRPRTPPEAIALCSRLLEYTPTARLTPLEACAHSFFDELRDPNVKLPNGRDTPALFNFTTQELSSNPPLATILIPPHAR
The subject of series [3] is HT-22 cells. Kind of series: Okadaic acid-induced hyperphosphorylation model, cell viability. To be noted: for increase in cells' viability after okadaic acid: okadaic acid 400 nM 3 h, viability after 24 h. Format: cell-based, mouse. On the procedure: Thus, it is used in a cell model of hyperphosphorylated tau-induced neurodegeneration.[53],[54] […] The test was performed on the HT-22 cell line treated with okadaic acid at the concentration of 400 nM and the compounds at the concentration of 0.1, 1, and 10 μM. Cell viability was measured by the PrestoBlue cell viability reagent.
(§2) Cell viability was determined by Presto Blue assay after 24 h. (B) Effect of compounds 11, 34, and 36 (0.1, 1, 10 μM) on NO-release (%) in LPS-treated (100 ng/mL) BV-2 cell line. NO-release was measured using a fluorometric assay with 2,3-diaminonaphthalene (DAN). (C, D) Effects of compounds 11 and 36 (0.1, 1, 10 μM) on IL-6 and TNF-α release in LPS-treated (100 ng/mL) BV-2 cell line. The IL-6 and TNF-α levels were measured using LANCE Ultra TR-FRET Detection Kit (PerkinElmer). Statistical analysis was performed using GraphPad Prism 9.0.0. All values are expressed as mean with SD. Differences among groups were evaluated by one-way ANOVA followed by posthoc analysis (Dunnett’s multiple comparison tests) vs. control group (LPS on BV-2 cells and okadaic acid on HT-22 cells) and were considered statistically significant if p < 0.05 (*p < 0.05, **p < 0.01, ***p < 0.001, and ****p < 0.0001).
HT-22 cells were treated with okadaic acid (Merck): 400 nM for 3 h. After this time, the 10, 1, and 0.1 μM of tested compounds or DMSO were added and incubated in the aseptic condition (37 °C, 5% CO2). Cell viability was determined by Presto Blue assay after 24 h.

Series [4] relates to BV-2 cell line. In words: IL-6 release in LPS-treated BV-2 cells (LANCE Ultra TR-FRET). Format: cell-based, mouse. To be noted: compound 10 μM; LPS 100 ng/mL. On the procedure: as §2, with “0.0001). […]” for “0.0001).”
(§3) The IL-6 and TNF-α levels in the culture supernatants were measured using LANCE Ultra TR-FRET Detection Kit (PerkinElmer), according to manufacturer protocol. […] After 1 h of incubation of IL-6 and 3h for incubation of TNF-α in the dark, at 22 °C, the plates were read with an EnVision plate reader (PerkinElmer) with the excitation wavelength at 320 nm, the donor emission at 615 nm, and the acceptor emission at 660 nm. […]
(In general: In TR-FRET formats the signal depends on donor and acceptor labels being close together.)

In series [5] the test system is BV-2 cell line. In words: TNF-α release in LPS-treated BV-2 cells (LANCE Ultra TR-FRET). To be noted: compound 10 μM; LPS 100 ng/mL. Format: cell-based, mouse. Here is the method: as §2, with “0.0001). […]” for “0.0001).”
as §3

The conditions of series [6]: PAMPA; for permeability classification: versus caffeine.
Series [7] in a line: in vitro. Conditions: PAMPA. On the technique in general: The PAMPA barrier holds no transporters, so it reflects passive diffusion.

As to `NC(=O)N1CC=C(c2ccnc(NC(=O)C3CC3)c2)C1` [Compound 11, 3-(2-(Cyclopropanecarboxamido)pyridin-4-yl)-2,5-dihydro-1H-pyrrole-1-carboxamide], half-maximal inhibition in series [1] (IC50) was put at 141 ± 5 nM. Moreover, the ΔTm at 10 µM in series [2] was found to be 13 °C. The “increase in cells' viability after okadaic acid” value in series [3] (compound 1 μM) and in series [3] (compound 10 μM) was “statistically significant effect” each time. For the same compound, the IL-6 release result in series [4] is given as “significantly reducing the release”. The TNF-α release entry in series [5] is “significantly reducing the release”. Further, in series [6], the permeability classification result is recorded as “might not penetrate through the biological membranes”. The apparent permeability coefficient (Papp) (in general, a coefficient for how fast a substance crosses the barrier) in series [7] stood at 0.53 ± 0.82 ×10⁻⁶ cm/s.

For the compound `O=C(Nc1cc(-c2ccc(-c3ncon3)s2)ccn1)C1CC1` [Compound 36, N-(4-(5-(1,2,4-Oxadiazol-3-yl)thiophen-2-yl)pyridin-2-yl)cyclopropanecarboxamide], in series [1], half-maximal inhibition (IC50) required 70 ± 1 nM. Moreover, in series [2], the ΔTm at 10 µM turned out to be 14 °C. For the same compound, the “increase in cells' viability after okadaic acid” value in series [3] (compound 10 μM) was “statistically significant effect”. Further, in series [3] (concentration not stated), the “cell viability after okadaic acid treatment” value was “restored cell viability”. The IL-6 release entry in series [4] is “significantly reducing the release”. Further, the TNF-α release result in series [5] is “significantly reducing the release”. For the same compound, in series [6], the permeability classification result was “well permeable”. This compound also came in with a Pe in series [6] (unit not given) of 9.4. The compound also displayed a Papp in series [7] of 9.4 ± 0.89 ×10⁻⁶ cm/s.
